Series [1] concerns the target T1, 5-HT reuptake (5-HT transporter) (Rattus norvegicus, UniProt P31652).
T1 construct: from tissue; host or cells: Wistar rat brain (procerebrum; crude synaptosomal supernatant)
In words: Inhibition of 5-HT reuptake in rat brain synaptosome (3H-5-HT uptake). It is filed as biochemical. As to conditions: 10 μM, read-out: 5-HT reuptake percent inhibition. How it is done:
(§1) All the target compounds were evaluated for their inhibitory activity against the reuptake of 5-HT and NE at the cellular level. Rat brain tissue was used for the uptake test, which included ^3H-5-HT and ^3H-NE [15]. 1-[7,8-^3H]-Noradrenaline and 5-hydroxy-[^3H]-tryptamine trifluoroacetate were obtained from Amersham Corporation.
(§2) Adult male Wistar rats were used. Animals were killed by decapitation and the whole brain, with the exception of the brainstem and cerebellum, was quickly removed. The procerebrum region was prepared, weighed, and homogenized in 10 volumes of ice-cold 0.32 mol/L sucrose solution using a glass homogenizer. The homogenate was centrifuged at 1000× g and 4 °C for 10 min. The supernatant was decanted and used for the uptake experiments. […] For each assay, three tubes were incubated with the vehicle (20 µL) at 0 °C in an ice bath. After incubation, the tubes were immediately filtered with a cell harvester. The fiberglass filter membrane was washed three times with ice-cold saline, placed in a scintillation vial, and counted in liquid scintillation cocktail (4 mL). Active uptake was the difference between the counts per minute at 37 and 0 °C. The percent inhibition at each drug concentration was the mean of three measurements.

Series [2] has as its target T2, NE reuptake (NE transporter) (Rattus norvegicus, UniProt Q63380).
T2 construct: from tissue; host or cells: Wistar rat brain (procerebrum; crude synaptosomal supernatant)
Kind of series: Inhibition of NE reuptake in rat brain synaptosome (3H-NE uptake). It is filed as biochemical. To be noted: 10 μM, read-out: NE reuptake percent inhibition. How it is done: as §1, §2

Where a name gives a salt, the structure may show the parent alone.

Broadly, the melting point is the temperature of the solid-liquid transition. For orientation: inhibition means how much of the control response was suppressed.

T1 sequence (P31652 whole entry): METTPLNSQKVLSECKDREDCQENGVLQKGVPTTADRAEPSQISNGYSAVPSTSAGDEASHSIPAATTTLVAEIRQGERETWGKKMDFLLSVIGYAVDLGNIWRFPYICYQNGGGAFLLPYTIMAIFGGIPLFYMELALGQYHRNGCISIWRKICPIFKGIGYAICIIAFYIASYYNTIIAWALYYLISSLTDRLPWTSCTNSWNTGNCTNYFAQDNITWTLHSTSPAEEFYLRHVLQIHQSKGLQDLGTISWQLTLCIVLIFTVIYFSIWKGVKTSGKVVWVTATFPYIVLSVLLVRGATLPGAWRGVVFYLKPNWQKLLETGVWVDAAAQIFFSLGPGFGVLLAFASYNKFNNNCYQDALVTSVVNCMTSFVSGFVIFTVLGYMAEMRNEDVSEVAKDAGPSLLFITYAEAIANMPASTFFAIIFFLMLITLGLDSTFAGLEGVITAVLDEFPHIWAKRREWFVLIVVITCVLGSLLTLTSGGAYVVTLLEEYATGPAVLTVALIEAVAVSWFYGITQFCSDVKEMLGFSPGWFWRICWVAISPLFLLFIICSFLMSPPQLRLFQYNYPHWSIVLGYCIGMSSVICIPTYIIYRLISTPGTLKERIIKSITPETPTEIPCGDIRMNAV
T2 sequence (Q63380 1-617): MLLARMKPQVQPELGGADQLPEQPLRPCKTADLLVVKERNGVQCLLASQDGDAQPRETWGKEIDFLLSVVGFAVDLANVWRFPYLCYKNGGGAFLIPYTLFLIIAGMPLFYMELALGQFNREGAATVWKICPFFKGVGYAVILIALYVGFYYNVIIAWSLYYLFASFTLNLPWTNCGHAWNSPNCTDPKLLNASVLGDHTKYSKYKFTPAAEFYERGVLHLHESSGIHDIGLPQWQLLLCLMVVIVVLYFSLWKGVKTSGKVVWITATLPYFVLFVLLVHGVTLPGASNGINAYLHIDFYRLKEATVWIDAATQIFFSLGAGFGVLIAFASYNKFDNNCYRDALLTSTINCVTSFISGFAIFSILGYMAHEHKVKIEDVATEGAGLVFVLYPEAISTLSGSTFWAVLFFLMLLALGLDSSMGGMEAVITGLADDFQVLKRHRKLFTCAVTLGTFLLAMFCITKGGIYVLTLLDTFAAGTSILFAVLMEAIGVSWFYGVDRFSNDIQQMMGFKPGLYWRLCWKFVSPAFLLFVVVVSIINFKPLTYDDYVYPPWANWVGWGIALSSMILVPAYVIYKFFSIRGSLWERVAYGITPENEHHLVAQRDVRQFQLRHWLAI

For the molecule `O=[N+]([O-])c1ccc(/C(=N\Cc2ccccc2)N2CCNCC2)cc1` (as salt: hydrochloride) [Compound I-2, (E)-N-((4-Nitrophenyl)(piperazin-1-yl)methylene)-1-phenylmethanaminehydrochloride], the melting point lay within 230 to 231 °C.

The molecule `Clc1ccccc1/C(=N\Cc1ccccc1)N1CCNCC1` (as salt: hydrochloride) [Compound I-3, (E)-N-((2-Chlorophenyl)(piperazin-1-yl)methylene)-1-phenylmethanaminehydrochloride] yielded a melting point of 142 to 144 °C.

`Clc1cccc(/C(=N\Cc2ccccc2)N2CCNCC2)c1` (as salt: hydrochloride) [Compound I-4, (E)-N-((3-Chlorophenyl)(piperazin-1-yl)methylene)-1-phenylmethanaminehydrochloride] had a melting point of 235 to 237 °C.

The molecule `Clc1ccc(/C(=N\Cc2ccccc2)N2CCNCC2)cc1` (as salt: hydrochloride) [Compound I-5, (E)-N-((4-Chlorophenyl)(piperazin-1-yl)methylene)-1-phenylmethanaminehydrochloride] returned a melting point of 182 to 184 °C.

As to `Fc1ccc(/C(=N\Cc2ccccc2)N2CCNCC2)cc1` (as salt: hydrochloride) [Compound I-6, (E)-N-((4-Fluorophenyl)(piperazin-1-yl)methylene)-1-phenylmethanaminehydrochloride], the melting point lay within 220 to 222 °C.

For the molecule `Fc1ccccc1/C(=N\Cc1ccccc1)N1CCNCC1` (as salt: hydrochloride) [Compound I-7, (E)-N-((2-Fluorophenyl)(piperazin-1-yl)methylene)-1-phenylmethanaminehydrochloride], the melting point is 182 to 184 °C.

With `N#Cc1ccc(/C(=N\Cc2ccccc2)N2CCNCC2)cc1` (as salt: hydrochloride) [Compound I-8, (E)-4-((Benzylimino)(piperazin-1-yl)methyl)benzonitrilehydrochloride], the melting point was 205 to 207 °C.

Turning to `N#Cc1cccc(/C(=N\Cc2ccccc2)N2CCNCC2)c1` (as salt: hydrochloride) [Compound I-9, (E)-3-((Benzylimino)(piperazin-1-yl)methyl)benzonitrilehydrochloride], the melting point fell in the range of 190 to 192 °C.

Molecule `Cc1ccc(/C(=N\Cc2ccccc2)N2CCNCC2)cc1` (as salt: hydrochloride) [Compound I-10, (E)-1-Phenyl-N-(piperazin-1-yl(p-tolyl)methylene)methanaminehydrochloride] had a melting point of 172 to 174 °C.

In turn, `O=[N+]([O-])c1ccc(/C(=N\Cc2ccccc2)N2CCNCC2)c(Cl)c1` (as salt: hydrochloride) [Compound I-11, (E)-N-((2-Chloro-4-nitrophenyl)(piperazin-1-yl)methylene)-1-phenylmethanaminehydrochloride] showed a melting point of 195 to 197 °C.

Molecule `O=[N+]([O-])c1ccc(/C(=N\Cc2ccc(Cl)cc2)N2CCNCC2)cc1` (as salt: hydrochloride) [Compound I-12, (E)-1-(4-Chlorophenyl)-N-((4-nitrophenyl)(piperazin-1-yl)methylene)methanaminehydrochloride] gave a melting point of 172 to 174 °C.

On to `Clc1ccc(C/N=C(\c2ccccc2Cl)N2CCNCC2)cc1` (as salt: hydrochloride) [Compound I-13, (E)-1-(4-Chlorophenyl)-N-((2-chlorophenyl)(piperazin-1-yl)methylene)methanaminehydrochloride], for which the melting point fell in the range of 181 to 183 °C.

Molecule `Clc1ccc(C/N=C(\c2cccc(Cl)c2)N2CCNCC2)cc1` (as salt: hydrochloride) [Compound I-14, (E)-1-(4-Chlorophenyl)-N-((3-chlorophenyl)(piperazin-1-yl)methylene)methanaminehydrochloride] gave a melting point of 218 to 220 °C.

In turn, `Clc1ccc(C/N=C(\c2ccc(Cl)cc2)N2CCNCC2)cc1` (as salt: hydrochloride) [Compound I-15, (E)-1-(4-Chlorophenyl)-N-((4-chlorophenyl)(piperazin-1-yl)methylene)methanaminehydrochloride] gave a melting point of 157 to 159 °C.

For `Fc1ccc(/C(=N\Cc2ccc(Cl)cc2)N2CCNCC2)cc1` (as salt: hydrochloride) [Compound I-16, (E)-1-(4-Chlorophenyl)-N-((4-fluorophenyl)(piperazin-1-yl)methylene)methanaminehydrochloride], the melting point is 165 to 167 °C.

Consider `Fc1ccccc1/C(=N\Cc1ccc(Cl)cc1)N1CCNCC1` (as salt: hydrochloride) [Compound I-17, (E)-1-(4-Chlorophenyl)-N-((2-fluorophenyl)(piperazin-1-yl)methylene)methanaminehydrochloride], for which the melting point is 215 to 217 °C.

`N#Cc1ccc(/C(=N\Cc2ccc(Cl)cc2)N2CCNCC2)cc1` (as salt: hydrochloride) [Compound I-18, (E)-1-(4-Chlorophenyl)-N-((4-cyanophenyl)(piperazin-1-yl)methylene)methanaminehydrochloride] had a melting point of 180 to 182 °C.

In turn, `Cc1ccc(/C(=N\Cc2ccc(Cl)cc2)N2CCNCC2)cc1` (as salt: hydrochloride) [Compound I-20, (E)-1-(4-Chlorophenyl)-N-(piperazin-1-yl(p-tolyl)methylene)methanaminehydrochloride] yielded a melting point of 183 to 185 °C.

As to `COc1ccc(C/N=C(\c2ccc([N+](=O)[O-])cc2)N2CCNCC2)cc1` (as salt: hydrochloride) [Compound I-21, (E)-1-(4-Methoxyphenyl)-N-((4-nitrophenyl)(piperazin-1-yl)methylene)methanaminehydrochloride], the melting point was in the range of 210 to 212 °C.

On to `c1ccc(/C(=N\Cc2cccc3ccccc23)N2CCNCC2)cc1` (as salt: hydrochloride) [II-1, (E)-1-(Naphthalen-1-yl)-N-(phenyl(piperazin-1-yl)methylene)methanaminehydrochloride], for which the melting point fell in the range of 187 to 189 °C.

On to `O=[N+]([O-])c1ccc(/C(=N\Cc2cccc3ccccc23)N2CCNCC2)cc1` (as salt: hydrochloride) [II-2, (E)-1-(Naphthalen-1-yl)-N-((4-nitrophenyl)(piperazin-1-yl)methylene)methanaminehydrochloride], for which the melting point lay within 202 to 204 °C.

In turn, `Fc1ccc(/C(=N\Cc2cccc3ccccc23)N2CCNCC2)cc1` (as salt: hydrochloride) [II-3, (E)-N-((4-Fluorophenyl)(piperazin-1-yl)methylene)-1-(naphthalen-1-yl)methanaminehydrochloride] registered a melting point of 193 to 195 °C.

The molecule `Clc1cccc(/C(=N\Cc2cccc3ccccc23)N2CCNCC2)c1` (as salt: hydrochloride) [II-6, (E)-N-((3-Chlorophenyl)(piperazin-1-yl)methylene)-1-(naphthalen-1-yl)methanaminehydrochloride] yielded a melting point of 198 to 200 °C.

`Clc1ccc(/C(=N\Cc2cccc3ccccc23)N2CCNCC2)cc1` (as salt: hydrochloride) [II-7, (E)-N-((4-Chlorophenyl)(piperazin-1-yl)methylene)-1-(naphthalen-1-yl)methanaminehydrochloride] yielded a melting point of 210 to 212 °C.

Molecule `N#Cc1ccc(/C(=N\Cc2cccc3ccccc23)N2CCNCC2)cc1` (as salt: hydrochloride) [II-8, (E)-4-(((Naphthalen-1-ylmethyl)imino)(piperazin-1-yl)methyl)benzonitrilehydrochloride] came in with a melting point of 158 to 160 °C.

Turning to `N#Cc1cccc(/C(=N\Cc2cccc3ccccc23)N2CCNCC2)c1` (as salt: hydrochloride) [II-9, (E)-3-(((Naphthalen-1-ylmethyl)imino)(piperazin-1-yl)methyl)benzonitrilehydrochloride], the melting point was 168 to 170 °C.

Regarding `N#Cc1ccc(/C(=N\Cc2cccc3ccccc23)N2CCNCC2)cc1` [II-8, (E)-4-(((Naphthalen-1-ylmethyl)imino)(piperazin-1-yl)methyl)benzonitrilehydrochloride], the inhibition at 10 µM in series [1] was 70%; in series [2], 46%.

Take `N#Cc1cccc(/C(=N\Cc2cccc3ccccc23)N2CCNCC2)c1` [II-9, (E)-3-(((Naphthalen-1-ylmethyl)imino)(piperazin-1-yl)methyl)benzonitrilehydrochloride]: the inhibition at 10 µM in series [1] is 88%; in series [2], 54%.

With `Cc1ccc(/C(=N\Cc2cccc3ccccc23)N2CCNCC2)cc1` [II-10, (E)-1-(Naphthalen-1-yl)-N-(piperazin-1-yl(p-tolyl)methylene)methanaminehydrochloride], the inhibition at 10 µM was found to be 82% in series [1] and 63% in series [2].

With `O=[N+]([O-])c1cccc2c(/C(=N\Cc3ccccc3)N3CCNCC3)cccc12` [III-1, (E)-N-((5-Nitronaphthalen-1-yl)(piperazin-1-yl)methylene)-1-phenylmethanaminehydrochloride], the results for the inhibition at 10 µM in series [1] and in series [2] were 73% and 66%, respectively.

Values taken from publication PMC6385122, “Design and Synthesis of Arylamidine Derivatives as Serotonin/Norepinephrine Dual Reuptake Inhibitors” (Molecules, 2019).
